Data: patent US11285167B2, “Synergistic nutritional neuroprotective compositions for ameliorating neural dysfunction” (CELAGENEX RESEARCH (INDIA) PVT. LTD., priority 2019, dated 2022)

What was measured:
TNF alpha = TNF alpha level in global ischemia reperfusion induced brain injury (cerebral infarction) model; format: in vivo, Wistar rats; conditions: global ischemia (30 min)/72 h reperfusion, oral daily for 10 days, mean ± SEM, n = 6
[1] = tested on: Valproic acid-induced autism disorder in albino Wistar rats; experiment: Morris water maze test in Valproic acid-induced autism disorder; format: in vivo; design: Escape latency / Retention time: unit not given here; conditions: for Escape latency / Retention time: PND 40, VPA 400 mg/kg, oral daily PND 14 to PND 40, mean ± SEM; for Learning and memory activities, Morris water maze (in words): PND 40, compared to Disease control or to Group-3 and Group-4
Procedure: The present study was to evaluate the effect of test substances on Valproic acid induced Autism spectrum disorder in wistar rats. The animals (50 animals) were divided into five groups each group consisting of 10 animals (5 animals per sex). Animals in Group-1 were treated with vehicle (0.5% CMC), Group-2 was treated with Valproic acid (VPA) 400 mg/kg via subcutaneous route, Group-3, Group-4 and Group-5 were treated with test substance Agmatine Sulphate (25.83 mg/kg), Nicotinamide Riboside chloride (6.46 mg/kg) and Agmatine Sulphate+Nicotinamide Riboside chloride (25.83 mg/kg+6.46 mg/kg) respectively, according to the body weight of animals. At the end of the experimental period, blood was collected from each group for biochemical analyses. On postnatal day 40 (PND 40), all the animals were exposed to the Morris water maze test and Open field test for specific time periods to determine the autism-like behaviors of the test substances. […] The experiment was performed in 14-day old male and female off springs. The weight of the rat pups on the first day of the experiment was 20-40 grams. Sodium Valproate at dose of 400 mg/kg was freshly prepared and administered via subcutaneous route to the rat pups on postnatal day 14 (PND 14). All the animals were divided into five groups and each group contained the same amount of male and female offspring (5 males and 5 females, per group). Animals in Group-1 served as Normal control and were treated with 0.5% CMC, Group-2 served as Disease control and were treated with VPA (400 mg/kg) via intraperitoneally (i.p.), whereas Group-3 was treated with Test-1 Agmatine Sulphate (25.83 mg/kg), Group-4 was treated with Test-2 Nicotinamide Riboside chloride (6.46 mg/kg) and Group-5 was treated with Test-1+Test-2 Agmatine Sulphate+Nicotinamide Riboside chloride (25.83 mg/kg+6.46 mg/kg). The assigned test substances were administered once daily from PND 14 to PND 40. In addition, behaviors of experimental animals were determined via Morris water maze and open field test. […] The dose volume administered to each rat was 10 ml/kg/day. Similarly, 0.5% CMC for Normal control and Disease control groups was administered orally at the same dose volume for a minimum of 26 consecutive days. The dose volume was calculated for individual animals on the first day of the treatment and was re-calculated according to the recent body weights recorded during the study. Daily individual dose volumes were recorded in the study records. The animals were exposed to a pool consisting of 4 quadrants (Northeast, Southeast, Southwest, and Northwest) which was filled with tap water (25° C., 40 cm deep) and covered with nontoxic milk. The removable platform was immersed below the water surface of one quadrant. Each animal had to memorize the location of the immersed platform by using specific visual cues placed around the outside of the tank. The time spent by each rat in finding and climbing on the immersed platform was recorded as the escape latency. Twenty-four hours later, the animal was re-exposed to the same condition, except that the immersed platform had been removed. The mean time that each rat spent in the target quadrant in order to search for the missing platform was noted as the retention time and was used as the index of retrieval memory. Both the escape latency and the retention time in a 5-minute exposure time were used as indices of learning and memory. A blind observer always stood at the same position, and care was taken not to disturb the relative location of water maze with respect to other objects in the laboratory. The determination of the spatial memory capacity via this test was done on PND 40.

[2] = tested on: Major depression disorder in Wistar rats; experiment: Open field test (ambulatory behavior) in Reserpine-induced major depression disorder; format: in vivo
[3] = tested on: Major depression disorder in Wistar rats; experiment: Forced swim test in Reserpine-induced major depression disorder; format: in vivo; conditions: for Immobility / mobility in forced swim test (in words): compared to disease control or to individual test substances
[4] = tested on: Valproic acid-induced autism disorder in albino Wistar rats; experiment: Overall autism-like behavior in VPA model of autism disorder; format: in vivo
Procedure: The present study was to evaluate the effect of test substances on Valproic acid induced Autism spectrum disorder in wistar rats. The animals (50 animals) were divided into five groups each group consisting of 10 animals (5 animals per sex). Animals in Group-1 were treated with vehicle (0.5% CMC), Group-2 was treated with Valproic acid (VPA) 400 mg/kg via subcutaneous route, Group-3, Group-4 and Group-5 were treated with test substance Agmatine Sulphate (25.83 mg/kg), Nicotinamide Riboside chloride (6.46 mg/kg) and Agmatine Sulphate+Nicotinamide Riboside chloride (25.83 mg/kg+6.46 mg/kg) respectively, according to the body weight of animals. At the end of the experimental period, blood was collected from each group for biochemical analyses. On postnatal day 40 (PND 40), all the animals were exposed to the Morris water maze test and Open field test for specific time periods to determine the autism-like behaviors of the test substances. […] The experiment was performed in 14-day old male and female off springs. The weight of the rat pups on the first day of the experiment was 20-40 grams. Sodium Valproate at dose of 400 mg/kg was freshly prepared and administered via subcutaneous route to the rat pups on postnatal day 14 (PND 14). […] In addition, behaviors of experimental animals were determined via Morris water maze and open field test. […]

Interleukin - 6 = experiment: Interleukin-6 level in global ischemia reperfusion induced brain injury (cerebral infarction) model; format: in vivo, Wistar rats; conditions: global ischemia (30 min)/72 h reperfusion, oral daily for 10 days, mean ± SEM, n = 6
[5] = forced swim test 5 min, Reserpine 1.0 mg/kg induced, oral daily 7 days, mean ± SEM, n = 6

Structure (SMILES)	TNF alpha Level (TNF alpha)	Escape latency ([1]; Female)	Retention time ([1]; Female)	Escape latency ([1]; Male)	Retention time ([1]; Male)	Learning and memory activities, Morris water maze (in words) [1]	No. of open arm entries (Open field test) ([2]; po)	Immobility / mobility in forced swim test (in words) [3]	Climbing [3, 5]	Immobility [3, 5]	Autism-like behavior (in words) [4]	Interleukin - 6 Levels (Interleukin - 6)	No. of open arm entries (Open field test) ([2]; 6 minute session, Reserpine induced, oral daily 7 days, mean ± SEM, n = 6)	Total time spent in active swimming [3, 5]
N=C(N)NCCCCN.O=S(=O)(O)O [Agmatine sulphate]	142.00 ± 1.53 pg/mL	14.20 ± 0.37	24.80 ± 0.58	14.00 ± 0.71	24.20 ± 0.73	significantly increased learning and memory activities	36.00 ± 0.86	mobility of the animals in the treatment groups increased	16.50 ± 0.43	99.67 ± 0.67	improved autism-like behavior	91.39 ± 0.92 pg/mL		
NC(=O)c1ccc[n+]([C@@H]2O[C@H](CO)[C@@H](O)[C@H]2O)c1.[Cl-] [Nicotinamide Riboside chloride, nicotinamide riboside chloride]	160.33 ± 4.79 pg/mL	15.20 ± 0.37	26.40 ± 0.68	15.40 ± 0.51	26.20 ± 0.49	significantly increased learning and memory activities		mobility of the animals in the treatment groups increased	15.50 ± 0.62	105.50 ± 0.85	improved autism-like behavior	109.56 ± 0.27 pg/mL	31.33 ± 0.71	185.33 ± 0.67 s
